This note sets out measurements from patent publication US8518945B2, “Pyrrolopyrazine kinase inhibitors” (Hoffmann-La Roche Inc., priority 2010, dated 2013).

T1 sequence (P52333 810-1124): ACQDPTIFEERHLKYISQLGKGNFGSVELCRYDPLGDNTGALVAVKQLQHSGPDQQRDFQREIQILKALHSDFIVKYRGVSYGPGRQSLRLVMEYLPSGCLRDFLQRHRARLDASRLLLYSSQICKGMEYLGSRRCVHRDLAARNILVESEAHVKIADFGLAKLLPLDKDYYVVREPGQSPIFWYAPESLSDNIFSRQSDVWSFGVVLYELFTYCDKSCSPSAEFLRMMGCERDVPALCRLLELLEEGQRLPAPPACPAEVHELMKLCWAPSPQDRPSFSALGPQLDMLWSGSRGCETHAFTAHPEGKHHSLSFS

This experiment has as its target T1, h-jak3(810-1124) (JAK3: Recombinant human kinase domain) (Homo sapiens, UniProt P52333).
T1 construct: jak3(810- 1124)-sf9-c; made in house; host or cells: Sf9
The experiment in a line: Determination of IC50 of Janus Kinase (JAK) inhibition: JAK3 radioactive end-point 33P-ATP kinase assay. In kind it is biochemical. The settings on record: no additive; ATP 1.5 uM, peptide 50 uM, 20 minutes, room temperature; read-out: Ic50 h-jak3(810-1124)-sf9-c: no additive.
Turning to `O=C(N[C@@H](C(=O)N1C[C@@H]2[C@@H](CO)[C@@H]2C1)C1CC1)c1c[nH]c2ncc(C3CC3)nc12` [Example I-86, 2-Cyclopropyl-5H-pyrrolo[2,3-b]pyrazine-7-carboxylic acid [(R)-1-cyclopropyl-2-((1S,5R,6R)-6-hydroxymethyl-3-aza-bicyclo[3.1.0]hex-3-yl)-2-oxo-ethyl]-amide], the IC50 was 4.02 nM.

As to `CC(C)(C)[C@@H](NC(=O)c1c[nH]c2ncc(-c3cc(C(F)(F)F)cc(C(F)(F)F)c3)nc12)C(=O)N1CCC(C#N)CC1` [Example I-50, 2-(3,5-Bis-trifluoromethyl-phenyl)-5H-pyrrolo[2,3-b]pyrazine-7-carboxylic acid [(R)-1-(4-cyano-piperidine-1-carbonyl)-2,2-dimethyl-propyl]-amide], the IC50 turned out to be 0.4 nM.

Consider `C[C@@H](NC(=O)c1c[nH]c2ncc(-c3cc(OCC4CC4)ccn3)nc12)C(=O)N1CC(C#N)C1` [Example I-131, 2-(4-Cyclopropylmethoxy-pyridin-2-yl)-5H-pyrrolo[2,3-b]pyrazine-7-carboxylic acid [(R)-2-(3-cyano-azetidin-1-yl)-1-methyl-2-oxo-ethyl]-amide], for which the IC50 is 2.58 nM.

Regarding `CC(C)(C)[C@@H](NC(=O)c1c[nH]c2ncc(C3CC3)nc12)C(=O)N1CC[C@H](C#N)C1` [Example I-30, 2-Cyclopropyl-5H-pyrrolo[2,3-b]pyrazine-7-carboxylic acid [(R)-1-((S)-3-cyano-pyrrolidine-1-carbonyl)-2,2-dimethyl-propyl]-amide], the half-inhibitory concentration (IC50) was 1.24 nM.

Regarding `CC(C)(C)[C@@H](NC(=O)c1c[nH]c2ncc(C3CC3)nc12)C(=O)N1CCCC1` [Example I-10, 2-Cyclopropyl-5H-pyrrolo[2,3-b]pyrazine-7-carboxylic acid [(R)-2,2-dimethyl-1-(pyrrolidine-1-carbonyl)-propyl]-amide], the IC50 was 2.18 nM.

For the compound `Cn1cc(-c2cnc3[nH]cc(C(=O)N[C@@H](C(=O)N4CCC(C#N)CC4)C(C)(C)C)c3n2)cn1` [Example I-55, 2-(1-Methyl-1H-pyrazol-4-yl)-5H-pyrrolo[2,3-b]pyrazine-7-carboxylic acid [(R)-1-(4-cyano-piperidine-1-carbonyl)-2,2-dimethyl-propyl]-amide], the half-inhibitory concentration (IC50) stood at 1.52 nM.

For `C[C@@H](NC(=O)c1c[nH]c2ncc(-c3cc4nccc(Cl)c4s3)nc12)C(=O)N1CC(C#N)C1` [Example I-100, 2-(7-Chloro-thieno[3,2-b]pyridin-2-yl)-5H-pyrrolo[2,3-b]pyrazine-7-carboxylic acid [(R)-2-(3-cyano-azetidin-1-yl)-1-methyl-2-oxo-ethyl]-amide], the IC50 was determined as 16 nM.

With `CCn1cc(-c2cnc3[nH]cc(C(=O)N[C@@H](C(=O)N4CCCC4)C(C)(C)C)c3n2)cn1` [Example I-13, 2-(1-Ethyl-1H-pyrazol-4-yl)-5H-pyrrolo[2,3-b]pyrazine-7-carboxylic acid [(R)-2,2-dimethyl-1-(pyrrolidine-1-carbonyl)-propyl]-amide], the IC50 is 4.53 nM.

`CC(C)(C)[C@@H](NC(=O)c1c[nH]c2ncc(-c3cnn(-c4ccc(F)cc4)c3)nc12)C(=O)N1CCC(C#N)CC1` [Example I-117, 2-[1-(4-Fluoro-phenyl)-1H-pyrazol-4-yl]-5H-pyrrolo[2,3-b]pyrazine-7-carboxylic acid [(R)-1-(4-cyano-piperidine-1-carbonyl)-2,2-dimethyl-propyl]-amide]: the IC50 turned out to be 1.01 nM.

With `CC(C)(C)[C@@H](NC(=O)c1c[nH]c2ncc(-c3cn(CC4CC4)cn3)nc12)C(=O)N1CCC(C#N)CC1` [Example I-119, 2-(1-Cyclopropylmethyl-1H-imidazol-4-yl)-5H-pyrrolo[2,3-b]pyrazine-7-carboxylic acid [(R)-1-(4-cyano-piperidine-1-carbonyl)-2,2-dimethyl-propyl]-amide], the 50% inhibitory concentration (IC50) came to 2.74 nM.

As for `N#CC1CN(C(=O)[C@H](NC(=O)c2c[nH]c3ncc(-c4cn(-c5cc(F)cc(F)c5F)cn4)nc23)C2CC2)C1` [Example I-133, 2-[1-(2,3,5-Trifluoro-phenyl)-1H-imidazol-4-yl]-5H-pyrrolo[2,3-b]pyrazine-7-carboxylic acid [(R)-2-(3-cyano-azetidin-1-yl)-1-cyclopropyl-2-oxo-ethyl]-amide], the IC50 was found to be 1.67 nM.

As to `N#CC1CN(C(=O)[C@H](NC(=O)c2c[nH]c3ncc(-c4cc5nccc(Cl)c5s4)nc23)C2CC2)C1` [Example I-96, 2-(7-Chloro-thieno[3,2-b]pyridin-2-yl)-5H-pyrrolo[2,3-b]pyrazine-7-carboxylic acid [(R)-2-(3-cyano-azetidin-1-yl)-1-cyclopropyl-2-oxo-ethyl]-amide], the IC50 was 0.69 nM.

Regarding `CC(C)[C@@H](NC(=O)c1c[nH]c2ncc(C3CC3)nc12)C(=O)N1CCCCC1` [Example I-7, 2-Cyclopropyl-5H-pyrrolo[2,3-b]pyrazine-7-carboxylic acid [(R)-2-methyl-1-(piperidine-1-carbonyl)-propyl]-amide], the IC50 came out at 6.56 nM.

With `Cn1cc(-c2cnc3[nH]cc(C(=O)N[C@@H](C(=O)N4CC(C#N)C4)C(C)(C)C)c3n2)cn1` [Example I-53, 2-(1-Methyl-1H-pyrazol-4-yl)-5H-pyrrolo[2,3-b]pyrazine-7-carboxylic acid [(R)-1-(3-cyano-azetidine-1-carbonyl)-2,2-dimethyl-propyl]-amide], the IC50 was determined as 279 nM.

As for `CC[C@@H](NC(=O)c1c[nH]c2ncc(C3CC3)nc12)C(=O)N1CCCC1` [Example I-3, 2-Cyclopropyl-5H-pyrrolo[2,3-b]pyrazine-7-carboxylic acid [(R)-1-(pyrrolidine-1-carbonyl)-propyl]-amide], the half-inhibitory concentration (IC50) is 11.7 nM.

In the case of `COc1ccnc2cc(-c3cnc4[nH]cc(C(=O)N[C@H](C)C(=O)N5CC(C#N)C5)c4n3)sc12` [Example I-103, 2-(7-Methoxy-thieno[3,2-b]pyridin-2-yl)-5H-pyrrolo[2,3-b]pyrazine-7-carboxylic acid [(R)-2-(3-cyano-azetidin-1-yl)-1-methyl-2-oxo-ethyl]-amide], the IC50 was determined as 8.34 nM.

In the case of `N#CC1CN(C(=O)[C@H](NC(=O)c2c[nH]c3ncc(-c4ccc(N5CCOCC5)cc4)nc23)C2CC2)C1` [Example I-163, 2-(4-Morpholin-4-yl-phenyl)-5H-pyrrolo[2,3-b]pyrazine-7-carboxylic acid [(R)-2-(3-cyano-azetidin-1-yl)-1-cyclopropyl-2-oxo-ethyl]-amide], the IC50 is ≤ 0.32 nM.

As to `C[C@@H](NC(=O)c1c[nH]c2ncc(C3CC3)nc12)C(=O)N1CC[C@@H](F)C1` [Example I-23, 2-Cyclopropyl-5H-pyrrolo[2,3-b]pyrazine-7-carboxylic acid [(R)-2-((R)-3-fluoro-pyrrolidin-1-yl)-1-methyl-2-oxo-ethyl]-amide], the half-maximal inhibitory concentration (IC50) stood at 9.53 nM.

For the compound `N#CC1CCN(C(=O)[C@H](NC(=O)c2c[nH]c3ncc(C4CC4)nc23)C2CC2)CC1` [Example I-61, 2-Cyclopropyl-5H-pyrrolo[2,3-b]pyrazine-7-carboxylic acid [(R)-2-(4-cyano-piperidin-1-yl)-1-cyclopropyl-2-oxo-ethyl]-amide], the IC50 was 0.42 nM.

Turning to `Cn1cc(-c2cnc3[nH]cc(C(=O)N[C@@H](C(=O)N4CC[C@H](C#N)C4)C4CC4)c3n2)cn1` [Example I-81, 2-(1-Methyl-1H-pyrazol-4-yl)-5H-pyrrolo[2,3-b]pyrazine-7-carboxylic acid [(R)-2-((S)-3-cyano-pyrrolidin-1-yl)-1-cyclopropyl-2-oxo-ethyl]-amide], the IC50 was ≤ 0.32 nM.

Regarding `CC1CCN(C(=O)[C@@H](C)NC(=O)c2c[nH]c3ncc(C4CC4)nc23)C1` (stereo partly drawn) [Example I-15, 2-Cyclopropyl-5H-pyrrolo[2,3-b]pyrazine-7-carboxylic acid [(R)-1-methyl-2-(3-methyl-pyrrolidin-1-yl)-2-oxo-ethyl]-amide], the IC50 is 54.9 nM.

For `C[C@@H](NC(=O)c1c[nH]c2ncc(C3CC3)nc12)C(=O)N1CCC(O)C1` (stereo partly drawn) [Example I-11, 2-Cyclopropyl-5H-pyrrolo[2,3-b]pyrazine-7-carboxylic acid [(R)-2-(3-hydroxy-pyrrolidin-1-yl)-1-methyl-2-oxo-ethyl]-amide], the IC50 turned out to be 91.5 nM.

With `CC[C@@H](C)[C@@H](NC(=O)c1c[nH]c2ncc(C3CC3)nc12)C(=O)N1CCC(C#N)CC1` [Example I-149, 2-Cyclopropyl-5H-pyrrolo[2,3-b]pyrazine-7-carboxylic acid [(1R,2R)-1-(4-cyano-piperidine-1-carbonyl)-2-methyl-butyl]-amide], the IC50 came to 1.27 nM.

Turning to `N#CC1CCN(C(=O)[C@@H](NC(=O)c2c[nH]c3ncc(C4CC4)nc23)C2(C(F)(F)F)CC2)CC1` [Example I-46, 2-Cyclopropyl-5H-pyrrolo[2,3-b]pyrazine-7-carboxylic acid [(S)-2-(4-cyano-piperidin-1-yl)-2-oxo-1-(1-trifluoromethyl-cyclopropyl)-ethyl]-amide], the 50% inhibitory concentration (IC50) turned out to be 4.29 nM.

Turning to `N#CC1CCN(C(=O)[C@H](NC(=O)c2c[nH]c3ncc(-c4cc(-c5ccccc5)ccn4)nc23)C2CC2)CC1` [Example I-147, 2-(4-Phenyl-pyridin-2-yl)-5H-pyrrolo[2,3-b]pyrazine-7-carboxylic acid [(R)-2-(4-cyano-piperidin-1-yl)-1-cyclopropyl-2-oxo-ethyl]-amide], the IC50 is 4.46 nM.

As for `Cn1cc(-c2cnc3[nH]cc(C(=O)N[C@@H](C(=O)N4CC[C@@H](C#N)C4)C(C)(C)C)c3n2)cn1` [Example I-60, 2-(1-Methyl-1H-pyrazol-4-yl)-5H-pyrrolo[2,3-b]pyrazine-7-carboxylic acid [(R)-1-((R)-3-cyano-pyrrolidine-1-carbonyl)-2,2-dimethyl-propyl]-amide], the half-inhibitory concentration (IC50) was determined as 0.79 nM.

As to `C[C@@H](NC(=O)c1c[nH]c2ncc(-c3cccc(N4C[C@H]5C[C@H]5C4)c3)nc12)C(=O)N1CC(C#N)C1` [Example I-126, 2-[(1S,5R)-3-(3-Aza-bicyclo[3.1.0]hex-3-yl)-phenyl]-5H-pyrrolo[2,3-b]pyrazine-7-carboxylic acid [(R)-2-(3-cyano-azetidin-1-yl)-1-methyl-2-oxo-ethyl]-amide], the half-maximal inhibitory concentration (IC50) amounted to 0.57 nM.
